One experiment concerns the target T1, aldosterone synthase (Homo sapiens, UniProt P19099).
T1 construct: host or cells: NCI-H295R human adrenocortical carcinoma cells
T1 sequence (P19099 25-503): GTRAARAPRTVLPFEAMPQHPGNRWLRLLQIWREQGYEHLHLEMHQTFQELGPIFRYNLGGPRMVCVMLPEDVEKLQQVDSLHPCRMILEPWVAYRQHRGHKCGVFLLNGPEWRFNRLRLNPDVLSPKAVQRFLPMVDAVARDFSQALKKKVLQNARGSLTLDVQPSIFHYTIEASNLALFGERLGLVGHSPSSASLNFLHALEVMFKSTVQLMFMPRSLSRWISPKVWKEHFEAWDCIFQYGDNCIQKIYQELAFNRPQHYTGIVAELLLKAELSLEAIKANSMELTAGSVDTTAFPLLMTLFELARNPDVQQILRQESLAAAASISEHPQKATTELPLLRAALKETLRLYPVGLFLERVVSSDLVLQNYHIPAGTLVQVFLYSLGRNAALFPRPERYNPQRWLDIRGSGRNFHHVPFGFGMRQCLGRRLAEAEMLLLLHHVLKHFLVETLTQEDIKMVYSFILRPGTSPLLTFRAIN
Description: in vitro aldosterone synthase inhibition (ASI cell), aldosterone production in NCI-H295R cells. The following applies: 1 μM Ang II, 24 hr. Format: cell-based. The text has this: Human adrenocortical carcinoma NCI-H295R cell line is obtained from American Type Culture Collection (Manassas, Va.). Insulin/transferrin/selenium (ITS)-A supplement (100×), DMEM/F-12, antibiotic/antimycotic (100×), and fetal calf serum (FCS) are purchased from Gibco (Grand Island, N.Y.). Anti-mouse PVT scintillation proximity assay (SPA) beads and NBS 96-well plates are obtained from Amersham (Piscataway, N.J.) and Corning (Acton, Mass.), respectively. Solid black 96-well flat bottom plates are purchased from Costar (Corning, N.Y.). Aldosterone and angiotensin (Ang II) are purchased from Sigma (St. Louis, Mo.). D[1,2,6,7-^3H(N)]aldosterone was acquired from PerkinElmer (Boston, Mass.). Nu-serum was a product of BD Biosciences (Franklin Lakes, N.J.). The NADPH regenerating system, dibenzylfluorescein (DBF), and human aromatase Supersomes® are obtained from Gentest (Woburn, Mass.).
For in vitro measurement of aldosterone activity, human adrenocortical carcinoma NCI-H295R cells are seeded in NBS 96-well plates at a density of 25,000 cells/well in 100 μl of a growth medium containing DMEM/F12 supplemented with 10% FCS, 2.5% Nu-serum, 1 μg ITS/ml, and 1× antibiotic/antimycotic. The medium is changed after culturing for 3 days at 37° C. under an atmosphere of 5% CO2/95% air. On the following day, cells are rinsed with 100 μl of DMEM/F12 and incubated with 100 μl of treatment medium containing 1 μM Ang II and a compound at different concentrations in quadruplicate wells at 37° C. for 24 hr. At the end of incubation, 50 μl of medium is withdrawn from each well for measurement of aldosterone production by an RIA using mouse anti-aldosterone monoclonal antibodies.
Measurement of aldosterone activity can also be performed using a 96-well plate format. Each test sample is incubated with 0.02 μCi of D-[1,2,6,7-^3H(N)]aldosterone and 0.3 μg of anti-aldosterone antibody in phosphate-buffered saline (PBS) containing 0.1% Triton X-100, 0.1% bovine serum albumin, and 12%, glycerol in a total volume of 200 μl at room temperature for 1 hr. Anti-mouse PVT SPA beads (50 μl) are then added to each well and incubated overnight at room temperature prior to counting in a Microbeta plate counter. The amount of aldosterone in each sample is calculated by comparing with a standard curve generated using known quantities of the hormone.
Full concentration-response curves of the test compound are performed at least 3 times. The IC50 values are derived using a non-linear least squares curve-fitting program from Microsoft XLfit.

A further experiment concerns the target T2, CYP11B1 (Homo sapiens, UniProt P15538).
T2 construct: Thus, the NCI-H295R cells have CYP11B1 (steroid 11 p-hydroxylase); host or cells: NCI-H295R human adrenocortical carcinoma cells
T2 sequence (P15538 25-503): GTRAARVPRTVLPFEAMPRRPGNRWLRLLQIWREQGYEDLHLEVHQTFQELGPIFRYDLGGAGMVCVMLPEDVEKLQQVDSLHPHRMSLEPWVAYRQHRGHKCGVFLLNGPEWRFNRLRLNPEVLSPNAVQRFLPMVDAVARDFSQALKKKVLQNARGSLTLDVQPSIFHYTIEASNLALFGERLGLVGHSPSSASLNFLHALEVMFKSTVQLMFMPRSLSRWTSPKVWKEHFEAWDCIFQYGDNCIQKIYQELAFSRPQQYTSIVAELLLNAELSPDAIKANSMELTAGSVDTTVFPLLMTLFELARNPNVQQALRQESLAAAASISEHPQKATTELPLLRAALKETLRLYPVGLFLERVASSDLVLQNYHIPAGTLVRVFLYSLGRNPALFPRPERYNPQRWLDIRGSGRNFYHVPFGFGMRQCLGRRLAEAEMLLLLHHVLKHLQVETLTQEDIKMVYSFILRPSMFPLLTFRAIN
Description: in vitro CYP11B1 inhibition in NCI-H295R cells. Format: cell-based. Conditions: read-out: % inhibition CYP11B1 @ 10 nM. The text has this:
The cell line NCI-H295R was originally isolated from an adrenocortical carcinoma and has been characterized in the literature through the stimulable secretion of steroid hormones and the presence of the enzymes essential for steroidogenesis. Thus, the NCI-H295R cells have CYP11B1 (steroid 11 p-hydroxylase). The cells show the physiological property of zonally undifferentiated human foetal adrenocortical cells which, however, have the capacity to produce the steroid hormones which are formed in the three, phenotypically distinguishable zones in the adult adrenal cortex. […]
The excretion of aldosterone, cortisol, corticosterone and estradiol/estrone into the culture medium can be detected and quantified by commercially available, specific monoclonal antibodies in radioimmunoassays in accordance with the manufacturer's instructions.
Inhibition of the release of certain steroids can be used as a measure of the respective enzyme inhibition by the added test compounds. The dose-dependent inhibition of enzymic activity by a compound is calculated by means of an inhibition plot which is characterized by an IC50. […]

The term IC50 denotes the midpoint of a concentration-inhibition curve. A high value points to a need for much substance. As a reminder, the inhibition is the drop in the measured response relative to a control, in per cent.

Molecules are shown by their SMILES.

On to `Cc1noc(-c2cncn2C2c3ccccc3NC(=O)C2(C)C)n1` (racemic) [Compound 10, 3,3-Dimethyl-4-[5-(3-methyl-[1,2,4]oxadiazol-5-yl)-imidazol-1-yl]-3,4-dihydro-1H-quinolin-2-one], for which inhibition on aldosterone synthase was half-maximal at 137 nM (IC50). This lies in the sub-micromolar range. On aldosterone synthase, `CN1C(=O)C(C)(C)C(n2ccnc2)c2ccccc21` (racemic) [Compound 7, 4-Imidazol-1-yl-1,3,3-trimethyl-3,4-dihydro-1H-quinolin-2-one] returned a concentration for half-maximal inhibition (IC50) of 10 nM. Also, the inhibition at 0.01 µM at CYP11B1 came to 100%. Compound `CC1(C)C(=O)Nc2cccc(Cl)c2C1n1cncc1CO` (racemic) [Compound 8, 5-Chloro-4-(5-hydroxymethyl-imidazol-1-yl)-3,3-dimethyl-3,4-dihydro-1H-quinolin-2-one] gave an IC50 at aldosterone synthase of 7 nM. On to `COc1ccc2c(c1)NC(=O)C(C)(C)C2n1ccnc1` (racemic) [Compound 6, 7-methoxy-4-Imidazol-1-yl-3,3-dimethyl-3,4-dihydro-1H-quinolin-2-one], for which the IC50 against aldosterone synthase turned out to be 34 nM. Also, the inhibition at 0.01 µM on CYP11B1 stood at 84%. At aldosterone synthase, `Cc1cncn1C1c2ccc(F)cc2NC(=O)C1(C)C` (racemic) [Compound 9, 7-Fluoro-3,3-dimethyl-4-(5-methyl-imidazol-1-yl)-3,4-dihydro-1H-quinolin-2-one] displayed an IC50 of 12 nM.

These data come from patent US8143278B2, “Organic compounds” (Novartis AG, priority 2006, dated 2012).
